Like-named read-outs stand apart in the source and are kept apart here.
Experiment: Pharmacokinetics of HC-7366 in male and female beagle dogs following IV and oral administration of HC-7366-K (plasma and urine, LC-MS/MS)
Type: in vivo, Beagle Dog
Set-up: AUC(0-t)/D: unit not given here
Settings: for AUC(0-inf) / AUC(0-t) / FPO / AUC(0-t)/D / t1/2: mean n = 3; for AUC(0-t): t = 48 h; for FPO: based on AUC(0-inf); for Cmax: suspension of Form III; for bioavailability: read-out: Mean oral bioavailability (FPO); for half-life: read-out: terminal half-life (t1/2) (converted); for Emesis: at 1 hour post dose
Experimental: The objective of this study was to characterize the pharmacokinetics of HC-7366 in male and female beagle dogs following intravenous (IV) and oral (PO) administration of the potassium salt of the compound of formula (I), which may be referred to in this Example as HC-7366-K.
The IV solution formulation of HC-7366-K contained “5% (v/v) DMSO and 95% (v/v) Captisol (20% w/v) in PBS (pH 7.4)”, and was administered […] dose at 0.5 mg free acid/kg.
The PO suspension formulation of HC-7366-K is a suspension of Form III of the potassium salt of the compound of formula (I) (see Example 6) and contained “0.5% (w/v) methylcellulose (400 cp) in water”, and was administered orally at 1 mg free acid/kg, 10 mg free acid/kg, 50 mg free acid/kg, 150 mg free acid/kg, respectively.
After dosing, blood samples were collected at various time points. Plasma and urine was harvested and analysed by LC-MS/MS to characterize the PK profiles of HC-7366.
HC-7366-K was stored at room temperature. The compound used in this study was HC-7366-K. All doses, concentrations and supporting data are expressed in terms of free acid. The molecular weight conversion factor from HC-7366-K to free acid was 1.11.
HC-7366-K was formulated as an IV solution at a target dose level of 0.5 mg/mL in “5% (v/v) DMSO and 95% (v/v) Captisol (20% w/v) in PBS (pH 7.4)”.
HC-7366-K was formulated as a PO suspension of Form III of the potassium salt of the compound of formula (I) (see Example 6) at a target dose concentration of 0.25 mg/mL, 2.5 mg/mL, 12.5 mg/mL and 37.5 mg/mL in “0.5% (w/v) methylcellulose (aq.) (400 cp) in water” respectively.
The dose was administered via intravenous and oral gavage at the target dose volume of 1, and 4 mL/kg, respectively. All animals had free access to water, were fasted overnight prior to dosing and fed approximately 2 hours after dosing. The IV dose and PO dose at 1 mg/kg were administered to the same dogs as a cross-over design. The PO dose was administered 10 days after the IV dose. The PO doses at 10, 50 and 150 mg/kg were administered to individual animals.
Following IV administration, blood samples (ca 0.3 mL) were collected from the venepuncture of peripheral veins except the dosing vein. Blood samples were collected pre dose and at 0.083 h, […], 0.5 h, 1 h, 2 h, 4 h, 8 h, […], 30 h, and 48 h post dose.
Following PO administration, blood samples (ca 0.3 mL) were collected from the venepuncture of peripheral veins. Blood samples were collected pre dose and at 0.25 h, 0.5 h, 1 h, 2 h, 4 h, 8 h, 24 h, 30 h, and 48 h post dose.
Blood samples were collected into tubes containing K2EDTA as anticoagulant. The acceptable time ranges for blood collection are shown below. […]. Samples were stored in a freezer set to maintain a temperature at or below −80° C. prior to analysis. The residual blood cells were discarded.
Urine samples were collected on cold packs into clean bottles and the cold packs were checked during the day and at each sampling interval. At the end of the collection interval, the volume of urine was recorded and then each sample was well mixed and maintained on wet ice throughout processing and then stored frozen at […]75±15° C. until analysis.
The plasma and urine concentration of HC-7366 was determined by protein precipitation with acetonitrile followed by liquid chromatography with mass spectrometric detection (LC MS/MS). Sample preparation was conducted by adding 50 uL plasma or 50 uL urine to 200 uL of acetonitrile containing dexamethasone as an analytical internal standard. There was no formal validation data to support the assay.
Calibration standards were prepared in male, female beagle dog plasma or urine using HC-7366 Free acid. Calibration standards were freshly prepared on the day of analysis.
Parameters were estimated using Phoenix (WinNonlin) pharmacokinetic software version 6.1.0 using a non-compartmental approach consistent with IV and PO routes of administration. […]

[1] = Female Beagle dog, IV 0.5 mg/kg, plasma
[2] = Female Beagle dog, PO 1 mg/kg, plasma
[3] = Female Beagle dog, PO 10 mg/kg, plasma
[4] = Female Beagle dog, PO 50 mg/kg, plasma
[5] = Female Beagle dog, PO 150 mg/kg
[6] = Female Beagle dog, PO 150 mg/kg, plasma
[7] = dog, plasma, female beagle dogs, oral 1 mg/kg
[8] = dog, Male Beagle dogs, IV 0.5 mg/kg, HC-7366 in plasma
[9] = dog, Male Beagle dogs, PO 1 mg/kg, HC-7366 in plasma
[10] = dog, Male Beagle dogs, PO 10 mg/kg, HC-7366 in plasma
[11] = dog, Male Beagle dogs, PO 50 mg/kg, HC-7366 in plasma
[12] = dog, Male Beagle dogs, PO 150 mg/kg, HC-7366 in plasma
[13] = plasma, female beagle dog, oral 10 mg/kg
[14] = plasma, female beagle dog, oral 50 mg/kg
[15] = plasma, female beagle dog, oral 150 mg/kg
[16] = plasma, male beagle dog, oral 1 mg/kg
[17] = plasma, male beagle dog, oral 10 mg/kg
[18] = plasma, male beagle dog, oral 50 mg/kg
[19] = plasma, male beagle dog, oral 150 mg/kg

For `CNC(=O)c1ncn2cc(-c3c(F)ccc(NS(=O)(=O)c4cc(Cl)cnc4OC)c3F)ncc12` [HC-7366-K, 6-(3-((5-chloro-2-methoxypyridine)-3-sulfonamido)-2,6-difluorophenyl)-N-methylimidazo[1,5-a]pyrazine-1-carboxamide], the AUC(0-inf) [1] was 85.7 µg·h/mL, the AUC(0-t) [1] was 81.1 µg·h/mL and the FPO (Female Beagle dog, PO 1 mg/kg) was 99%. The “AUC(0-t)/D” value (Female Beagle dog, PO 1 mg/kg) was 156383, the AUC(0-inf) [2] was 170 µg·h/mL and the t1/2 [2] was 13 h. The AUC(0-t) [2] was 156 µg·h/mL, the FPO (Female Beagle dog, PO 10 mg/kg) was 84% and the “AUC(0-t)/D” value (Female Beagle dog, PO 10 mg/kg) was 126414. The AUC(0-inf) [3] was 1440 µg·h/mL, the t1/2 [3] was 14 h and the Tmax (Female Beagle dog, PO 10 mg/kg, range n = 3) was 0.50 to 1.0 h. For the same molecule, the AUC(0-t) [3] was 1260 µg·h/mL, the FPO (Female Beagle dog, PO 50 mg/kg) was 63% and the “AUC(0-t)/D” value (Female Beagle dog, PO 50 mg/kg) was 97510. It also gave an AUC(0-inf) [4] of 5370 µg·h/mL, a t1/2 [4] of 14 h and an AUC(0-t) [4] of 4880 µg·h/mL. For the same molecule, the FPO [5] was 32%, the “AUC(0-t)/D” value [5] was 49629 and the AUC(0-inf) [6] was 8260 µg·h/mL. For the same molecule, the t1/2 [6] was 14 h, the AUC(0-t) [6] was 7440 µg·h/mL and the “AUC(0-t)/D” value (Male Beagle dogs, IV 0.5 mg/kg) was 155094. For the same molecule, the FPO (Male Beagle dogs, PO 1 mg/kg) was 73%, the “AUC(0-t)/D” value (Male Beagle dogs, PO 1 mg/kg) was 116097 and the t1/2 (Male Beagle dogs, PO 10 mg/kg, HC-7366 in plasma) was 15 h. For the same molecule, the FPO (Male Beagle dogs, PO 10 mg/kg) was 83%, the “AUC(0-t)/D” value (Male Beagle dogs, PO 10 mg/kg) was 126074 and the t1/2 (Male Beagle dogs, PO 50 mg/kg, HC-7366 in plasma) was 17 h. For the same molecule, the FPO (Male Beagle dogs, PO 50 mg/kg) was 58%, the “AUC(0-t)/D” value (Male Beagle dogs, PO 50 mg/kg) was 85797 and the t1/2 (Male Beagle dogs, PO 150 mg/kg, HC-7366 in plasma) was 11 h. For the same molecule, the FPO (Male Beagle dogs, PO 150 mg/kg) was 21%, the “AUC(0-t)/D” value (Male Beagle dogs, PO 150 mg/kg) was 34480 and the Tmax (Male Beagle dogs, PO 150 mg/kg, range n = 3) was 1.0 to 4.0 h. The Tmax (dog, plasma, Male Beagle dogs, PO 1 mg/kg, range n = 3, read-out: tmax) was 0.25 to 0.5 h, the Tmax (dog, plasma, Male Beagle dogs, PO 10 mg/kg, range n = 3, read-out: tmax) was 0.5 h and the Tmax (dog, plasma, Male Beagle dogs, PO 50 mg/kg, range n = 3, read-out: tmax) was 0.5 to 1 h. The clearance (dog, plasma, female Beagle dogs, intravenous 0.5 mg/kg, read-out: Clearance (CL)) was 5.84 mL/h/kg, the Vd (dog, plasma, female Beagle dogs, intravenous 0.5 mg/kg, read-out: volume of distribution at steady state (Vss)) was 0.084 L/kg and the Cmax [7] was 10.7 µg/mL. It also gave a bioavailability [7] of 99%, a half-life [7] of 13 h and an AUC(0-inf) [8] of 85.6 µg·h/mL. It also gave an AUC(0-t) [8] of 77.5 µg·h/mL, an AUC(0-inf) [9] of 123 µg·h/mL and an AUC(0-t) [9] of 116 µg·h/mL. It also gave an AUC(0-inf) [10] of 1420 µg·h/mL, an AUC(0-t) [10] of 1260 µg·h/mL and an AUC(0-inf) [11] of 4930 µg·h/mL. For the same molecule, the AUC(0-t) [11] was 4290 µg·h/mL, the AUC(0-inf) [12] was 5470 µg·h/mL and the AUC(0-t) [12] was 5170 µg·h/mL. For the same molecule, the half-life (dog, female Beagle dogs, intravenous 0.5 mg/kg, plasma HC-7366, mean n=3) was 12 h, the half-life (dog, male beagle dogs, intravenous 0.5 mg/kg, plasma HC-7366, mean n=3) was 14 h and the Emesis (female beagle dog, oral 150 mg/kg) was “Emesis was observed”. The Emesis (male beagle dog, oral 150 mg/kg) was “Emesis was observed”, the “gender differences in the PK parameters” value (male versus female beagle dogs) was “no notable gender differences” and the “dose proportionality of AUC (AUC/D values)” value (oral, between 1 and 50 mg/kg, beagle dogs) was “generally increased in proportional to dose level”. It also gave a Tmax (plasma, Female Beagle dog, PO 1 mg/kg, range n = 3, read-out: tmax) of 1 to 2 h, a Tmax (plasma, Female Beagle dog, PO 50 mg/kg, range n = 3, read-out: tmax) of 2 to 4 h and a Tmax (plasma, Female Beagle dog, PO 150 mg/kg, range n = 3, read-out: tmax) of 0.5 to 1 h. It also gave a Cmax [13] of 87 µg/mL, a Tmax (plasma, female beagle dog, oral 10 mg/kg, three animals, read-out: time post dose at which Cmax was observed (Tmax)) of 0.5 to 1 h and a bioavailability [13] of 84%. The half-life [13] was 14 h, the Cmax [14] was 246 µg/mL and the bioavailability [14] was 63%. It also gave a half-life [14] of 14 h, a Cmax [15] of 350 µg/mL and a bioavailability [15] of 32%. It also gave a half-life [15] of 14 h, a Cmax [16] of 10.2 µg/mL and a bioavailability [16] of 73%. It also gave a half-life [16] of 12 h, a Cmax [17] of 94.3 µg/mL and a bioavailability [17] of 83%. It also gave a half-life [17] of 15 h, a Cmax [18] of 227 µg/mL and a bioavailability [18] of 58%. The half-life [18] was 17 h, the Cmax [19] was 280 µg/mL and the Tmax (plasma, male beagle dog, oral 150 mg/kg, three animals, read-out: time post dose at which Cmax was observed (Tmax)) was 1 to 4 h. It also gave a bioavailability [19] of 21% and a half-life [19] of 11 h.
